In PubChem BioAssay AID1963836 (Molecular Pharmacology Branch, DTP, NCI, 2024):
“And” between values parts separate entries of the source, which are not always exact repeats. Equal values may be shown once.

Tested on: 857933-349-R-J2-PDC complex spheroid viability
Assay: Anticancer human tumor 857933-349-R-J2-PDC patient-derived colon adenocarcinoma cell line growth inhibition [POLQ]
Details: for viability, T/C: stronger effect = lower value
Experimental: Multicellular complex tumor spheroid response to Polymerase (POL) inhibitors (novobiocin, ART-558, RP6685) in combination with a variety of drugs and investigational agents in selected tumor cell lines
The POL inhibitors (novobiocin, ART-558, and RP6685) were evaluated both individually and in combination with standard of care and investigational anticancer small molecules within a complex spheroid model of solid tumors. . Complex spheroids include a stromal component modeled by human endothelial cells (HUVEC) and fibroblasts modeled by human mesenchymal stem cells (MSCs). The concentration ranges selected for each drug and investigational agent were based upon clinically achievable concentrations if the clinical Cmax of the agent was known.
Compounds. The drugs and investigational agents: novobiocin (NSC847541), ART-558 (NSC835418), RP-6685 (NSC848927), peposertib (NSC802822), ceralasertib (NSC780249), elimusertib (NSC800525), camonsertib (NSC841442), AZD-1390 (NSC803789), olaparib (NSC753686), talazoparib (NSC767125), rucaparib (NSC756644), sotorasib (NSC818433), MRTX-1133 (NSC836407), SN-38 (NSC673596), topotecan (NSC609699), epotoside (NSC141540), doxorubicin (NSC123127), gemcitabine (NSC613327), 5-fluorouracil (NSC19893), paclitaxel (NSC125973), vemurafenib (NSC761431), MSA-2 (NSC828583), SN-011 (NSC837082), adavosertib (NSC754352), prexasertib (NSC758257), carboplatin (NSC241240) and oxaliplatin (NSC266046), were obtained from the National Cancer Institute (NCI) Developmental Therapeutics Program Chemical Repository (21). The FDA-approved anticancer drug set is available from the Developmental Therapeutics Program at https://dtp.cancer.gov/organization/dscb/obtaining/. […] The stock solutions were prepared in dimethyl sulfoxide (DMSO, Sigma-Aldrich, St. Louis, MO, cat. D2650), except for the platinum compounds which were prepared in saline (Quality Biological, Gaithersburg, MD, cat. 114-055-101), at 800-fold the tested concentration and stored at -70 degrees C prior to their use. All drugs and investigational agents were tested over a range starting from a high concentration at or near the clinical Cmax and decreasing in half-log increments. If the clinical Cmax for an agent had not been determined, the highest concentration tested was 10 microM, except for SN-38, which was tested at a high concentration of 1 microM.
Cell Culture. All cells were maintained in an incubator at 37 degrees C and 5% CO2 with 95% humidity. The PDC lines were cultured according to standard operating procedures established by the NCI PDMR (https://pdmr.cancer.gov). Table 3 of the manuscript, lists the cell lines along with the number of the three cell types plated to form the mct-spheroids and media for tumor cell growth. After thawing, all PDC lines, except 997537-175-T-J1-PDC and 415267-285-R-J2-PDC, were cultured in Matrigel-coated flasks prepared with a working solution of 1X Ham's F-12 nutrient mix, without supplementation (Thermo Fisher Scientific, cat. 11765054), 100 U/mL penicillin-streptomycin (Thermo Fisher Scientific, cat. 15140122), and 2.5% Matrigel (Corning Inc., Corning, NY, cat. 354248) for the first three passages. The two PDC lines 997537-175-T-J1-PDC and 415267-285-R-J2-PDC were cultured on uncoated flasks. The 857933-349-R-J2-PDC line was cultured in 6C/Colon 1B media containing advanced DMEM/F-12 (Thermo Fisher Scientific, cat. 12634028), 10 mM HEPES (Thermo Fisher Scientific, cat. 15630080), 1X GlutaMAX supplement (Thermo Fisher Scientific, cat. 35050061), 0.1 mg/mL primocin (InvivoGen, San Diego, CA, cat. ant-pm-2), 10% defined fetal bovine serum, heat inactivated (HyClone Laboratories Inc., Logan, UT, cat. SH30070.03HI), 50% L-WRN conditioned media (ATCC, cat. CRL-3276), 1.25 mM N-Acetyl-L-cysteine (Sigma-Aldrich, cat. A9165), 10 mM nicotinamide (Sigma-Aldrich, cat. N0636), 1X B-27 supplement (Thermo Fisher Scientific, cat. 17504044), 1X N-2 supplement (Thermo Fisher Scientific, cat. […]

[1] = compound alone, run of 01/08/2024
[2] = compound alone, run of 01/19/2024
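Note: spheroids exposed to compounds for seven days before readout.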

| Compound | viability, T/C (compound 0.0316 µM) | viability, T/C (compound 0.1 µM) | viability, T/C (compound 0.316 µM) | viability, T/C (compound 1 µM) | viability, T/C (compound 3.16 µM) | viability, T/C (compound 10 µM) | IC50 (curve of compound) | IC50 [1] [µM] | viability, T/C (compound 0.00316 µM) | viability, T/C (compound 0.01 µM) | IC50 [2] [µM] | viability, T/C (compound 0.000316 µM) | viability, T/C (compound 0.001 µM) |
| --- | --- | --- | --- | --- | --- | --- | --- | --- | --- | --- | --- | --- | --- |
| CNCc1ccc(-c2[nH]c3cc(F)cc4c3c2CCNC4=O)cc1 | 100% and 90.4% and 94.9% | 113% and 94.5% and 90.2% | 112% and 94.5% and 80.8% | 109% and 95.4% and 91.2% | 108% and 106% and 89.7% | 97.1% and 91.2% and 90% | > 10 µM | – | – | – | – | – | – |
| COC1C(OC(N)=O)C(O)C(Oc2ccc3c(O)c(NC(=O)c4ccc(O)c(CC=C(C)C)c4)c(=O)oc3c2C)OC1(C)C (configuration not stated) | – | – | – | – | – | – | – | > 10 | – | – | – | – | – |
| COc1cc(C2c3cc4c(cc3C(OC3OC5COC(C)OC5C(O)C3O)C3COC(=O)C23)OCO4)cc(OC)c1O (configuration not stated) | 74.7% and 90.5% and 74.8% | 74% and 67.4% and 84.9% | 51.1% and 65.9% and 54.1% | 60% and 59.9% and 55.7% | 38.2% and 33.4% and 32.9% | 24.6% and 24.7% and 27.6% | 1.16 µM and 1.19 µM and 0.955 µM | – | – | – | – | – | – |
| COc1cc2cc(C(=O)CCC(=O)O)sc2cc1OC | 92.5% and 89% and 101% | 88.6% and 95.5% and 91.5% | 94.9% and 102% and 82.7% | 88.2% and 110% and 92.5% | 102% and 111% and 116% | 84.1% and 95% and 89.9% | > 10 µM | – | – | – | – | – | – |
| COc1ccc([C@@H](O)c2cc(-c3ncnc4cc(N5CCOCC5)ccc34)c(F)cc2Cl)nn1 | 97.4% and 82.2% and 96.7% | 85.4% and 95.2% and 123% | 85.5% and 99% and 89.7% | 102% and 100% and 95.2% | 84.8% and 82.1% and 79.2% | 71.6% and 58.9% and 66% | > 10 µM | – | – | – | – | – | – |
| COc1cccc(OCCCN)c1-c1cc(Nc2cnc(C#N)cn2)n[nH]1 | 74.3% and 98.6% and 80.6% | 51.2% and 62.8% and 75.9% | 53.3% and 60.6% and 53.7% | 38.1% and 53.8% and 48.8% | – | – | 0.189 µM and > 1 µM and 0.731 µM | – | 91.5% and 95.9% and 86.6% | 87.6% and 84.2% and 97.2% | – | – | – |
| COc1cccc2c1C(=O)c1c(O)c3c(c(O)c1C2=O)CC(O)(C(=O)CO)CC3OC1CC(N)C(O)C(C)O1 (configuration not stated) | 74.8% and 79.1% and 66.5% | 76.8% and 69% and 68.7% | 43.7% and 46.9% and 49.5% | 10.4% and 8.69% and 8.8% | 0.42% and 0.45% and 0.4% | 0.55% and 0.34% and 0.38% | 0.259 µM and 0.312 µM | – | – | – | – | – | – |
| Cc1cccc(N(C)C(=O)C2C(O)CCN2c2nc(C)cc(C(F)(F)F)c2C#N)c1 (configuration not stated) | 96.2% [middle of 13 runs] | – | – | – | – | – | – | > 10 | – | – | > 10 | – | – |
| Cn1ncnc1[C@H]1c2n[nH]c(=O)c3cc(F)cc(c23)N[C@@H]1c1ccc(F)cc1 | 85.6% and 89.2% and 103% | 90.2% and 97.5% and 88.9% | – | – | – | – | > 0.1 µM | – | 105% and 103% (2×) | 99.3% and 97.8% and 73.1% | – | 96.9% and 93.8% and 114% | 93.6% and 90.7% and 86.2% |
| Nc1ccc(C#CCN(C(=O)Cc2ncc(C(F)(F)F)cc2C(F)(F)F)c2ccc(F)cc2)nn1 | 97.7% [middle of 13 runs] | 104% [middle of 13 runs] | 102% [middle of 13 runs] | 99.5% [middle of 13 runs] | – | 99.5% [middle of 13 runs] | – | – | – | – | > 10 | – | – |
| Nc1ccn(C2OC(CO)C(O)C2(F)F)c(=O)n1 (configuration not stated) | 73.9% and 60.7% and 67.2% | 59.8% and 43.2% and 55.4% | 25.9% and 10.6% and 33.7% | 19.8% and 9.28% and 16.4% | 13% and 7.52% and 11.1% | 10.5% and 5.88% and 9.87% | 0.139 µM and 0.0638 µM and 0.134 µM | – | – | – | – | – | – |
| O=C(Nc1ccc(O)c(NS(=O)(=O)c2ccc(F)cc2)c1)c1ccc(-c2ccccc2)cc1 | 93.1% and 99.4% and 97.2% | 97.3% and 105% and 102% | 82.5% and 107% and 105% | 94.7% and 94% and 82.6% | 95.3% and 86.2% and 100% | 77.8% and 88.1% and 78.2% | > 10 µM | – | – | – | – | – | – |
| O=C(c1cc(Cc2n[nH]c(=O)c3ccccc23)ccc1F)N1CCN(C(=O)C2CC2)CC1 | 110% and 84.9% and 98.6% | 108% and 96.5% and 87.8% | 96.2% and 105% and 95.9% | 101% and 98.2% and 108% | 94.1% and 79.9% and 110% | 72.3% and 76.5% and 84.3% | > 10 µM | – | – | – | – | – | – |
| O=c1[nH]cc(F)c(=O)[nH]1 | 98.7% and 89.7% and 53.3% | 89.1% and 112% and 86.9% | 114% and 97.8% and 96% | 72.6% and 81.3% and 59.4% | 45.8% and 37.1% and 40.2% | 28.3% and 24.9% and 21.5% | 2.38 µM and 2.25 µM and 1.89 µM | – | – | – | – | – | – |
